Measurements reported in patent publication US20260028365A1 (BIOGEN MA INC., priority 2022, published 2026).

Tests used:
[1] = molecular target: JH2 domain of human Tyk2 (Homo sapiens (Human), UniProt P29597); assay: JH2 Biochemical Assay (TR-FRET probe displacement); assay type: binding; conditions: TR-FRET probe displacement, JH2 domain
[2] = molecular target: Tyk2 (Homo sapiens (Human), UniProt P29597); assay: pSTAT4 Cell Assay (MSD, NK92 cells); assay type: cell-based
Tyk2, sequence (P29597 whole entry): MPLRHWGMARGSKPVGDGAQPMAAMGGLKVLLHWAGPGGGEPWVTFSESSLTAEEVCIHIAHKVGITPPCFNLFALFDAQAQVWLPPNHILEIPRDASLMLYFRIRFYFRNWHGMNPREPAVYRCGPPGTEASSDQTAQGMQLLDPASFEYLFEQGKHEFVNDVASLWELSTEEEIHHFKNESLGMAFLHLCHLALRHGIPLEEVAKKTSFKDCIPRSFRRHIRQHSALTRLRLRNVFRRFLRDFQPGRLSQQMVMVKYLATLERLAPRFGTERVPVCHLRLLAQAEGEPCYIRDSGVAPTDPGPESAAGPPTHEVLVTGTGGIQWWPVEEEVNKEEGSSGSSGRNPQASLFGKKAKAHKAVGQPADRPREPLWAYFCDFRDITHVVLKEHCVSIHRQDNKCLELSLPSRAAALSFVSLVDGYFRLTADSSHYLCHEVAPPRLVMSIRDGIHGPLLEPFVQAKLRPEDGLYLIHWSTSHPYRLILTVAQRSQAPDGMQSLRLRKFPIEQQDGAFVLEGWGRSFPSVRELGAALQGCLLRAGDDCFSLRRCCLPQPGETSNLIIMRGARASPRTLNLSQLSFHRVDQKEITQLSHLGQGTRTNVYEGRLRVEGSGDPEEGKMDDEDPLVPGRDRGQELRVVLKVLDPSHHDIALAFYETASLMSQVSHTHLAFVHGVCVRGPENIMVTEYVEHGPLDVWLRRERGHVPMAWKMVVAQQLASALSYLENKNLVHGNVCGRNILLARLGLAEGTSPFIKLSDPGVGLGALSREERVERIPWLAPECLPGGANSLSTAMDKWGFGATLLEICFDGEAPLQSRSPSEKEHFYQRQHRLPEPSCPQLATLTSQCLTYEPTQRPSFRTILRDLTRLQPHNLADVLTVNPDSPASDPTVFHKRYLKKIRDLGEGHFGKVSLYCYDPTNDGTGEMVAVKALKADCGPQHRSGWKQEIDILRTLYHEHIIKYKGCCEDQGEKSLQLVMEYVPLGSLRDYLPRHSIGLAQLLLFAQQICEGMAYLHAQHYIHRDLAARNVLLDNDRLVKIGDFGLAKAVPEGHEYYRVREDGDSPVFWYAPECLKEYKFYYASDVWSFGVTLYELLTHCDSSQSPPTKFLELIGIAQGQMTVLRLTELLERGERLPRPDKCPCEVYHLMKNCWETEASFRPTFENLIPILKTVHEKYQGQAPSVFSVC

JH2 domain of human Tyk2, sequence (P29597 575-876): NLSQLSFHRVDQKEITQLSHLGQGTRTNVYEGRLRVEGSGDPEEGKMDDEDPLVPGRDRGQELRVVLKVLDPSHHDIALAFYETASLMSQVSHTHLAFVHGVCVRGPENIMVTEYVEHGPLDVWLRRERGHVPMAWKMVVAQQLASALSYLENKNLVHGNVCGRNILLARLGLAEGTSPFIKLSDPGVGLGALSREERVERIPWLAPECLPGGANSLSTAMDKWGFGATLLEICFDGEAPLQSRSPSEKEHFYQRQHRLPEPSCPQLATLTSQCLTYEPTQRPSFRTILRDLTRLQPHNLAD

Row | Compound | IC50 [1] [nM] | IC50 [2] [nM]
1 | COc1cnc(-c2cnc(NC(C)=O)cc2Nc2cc(C)nc(C(C)(F)F)n2)cn1 [Example 815, N-(4-((2-(1,1-difluoroethyl)-6-methylpyrimidin-4-yl)amino)-5-(5-methoxypyrazin-2-yl)pyridin-2-yl)acetamide] | ≤ 10 | ≥ 1000
2 | CCc1cc(Nc2cc(NC(C)=O)ncc2F)nc(C(C)(F)F)n1 [Example 816, N-(4-((2-(1,1-difluoroethyl)-6-ethylpyrimidin-4-yl)amino)-5-fluoropyridin-2-yl)acetamide] | ≤ 10 | 100 to 1000
3 | CC(=O)Nc1cc(Nc2cc(C(C)C)nc(C(C)(F)F)n2)c(F)cn1 [Example 817, N-(4-((2-(1,1-difluoroethyl)-6-isopropylpyrimidin-4-yl)amino)-5-fluoropyridin-2-yl)acetamide] | 10 to 100 | ≥ 1000
4 | CC(=O)Nc1cc(Nc2cc(OC3CC3)nc(C(C)(F)F)n2)c(F)cn1 [Example 818, N-(4-((6-cyclopropoxy-2-(1,1-difluoroethyl)pyrimidin-4-yl)amino)-5-fluoropyridin-2-yl)acetamide] | ≤ 10 | 100 to 1000
5 | CC(=O)Nc1cc(Nc2cc(-c3cnn(C(C)C)c3)nc(C(C)(F)F)n2)c(F)cn1 [Example 819, N-(4-((2-(1,1-difluoroethyl)-6-(1-isopropyl-1H-pyrazol-4-yl)pyrimidin-4-yl)amino)-5-fluoropyridin-2-yl)acetamide] | 10 to 100 | ≥ 1000
6 | CCc1cc(Nc2cc(NC(C)=O)ncc2-c2ccc3c(n2)OCC(C)(C)O3)nc(C(C)(F)F)n1 [Example 821, N-(4-((2-(1,1-difluoroethyl)-6-ethylpyrimidin-4-yl)amino)-5-(2,2-dimethyl-2,3-dihydro-[1,4]dioxino[2,3-b]pyridin-6-yl)pyridin-2-yl)acetamide] | ≤ 10 | ≤ 10
7 | CC(=O)Nc1cc(Nc2cc(C(C)C)nc(C(C)(F)F)n2)c(-c2ccc3c(n2)OCC(C)(C)O3)cn1 [Example 822, N-(4-((2-(1,1-difluoroethyl)-6-isopropylpyrimidin-4-yl)amino)-5-(2,2-dimethyl-2,3-dihydro-[1,4]dioxino[2,3-b]pyridin-6-yl)pyridin-2-yl)acetamide] | ≤ 10 | ≤ 10
8 | CCc1cc(Nc2cc(NC(C)=O)ncc2-c2cnccn2)nc(C(C)(F)F)n1 [Example 823, N-(4-((2-(1,1-difluoroethyl)-6-ethylpyrimidin-4-yl)amino)-5-(pyrazin-2-yl)pyridin-2-yl)acetamide] | ≤ 10 | 10 to 100
9 | CC(=O)Nc1cc(Nc2cc(OC3CC3)nc(C(C)(F)F)n2)c(-c2cnccn2)cn1 [Example 824, N-(4-((6-cyclopropoxy-2-(1,1-difluoroethyl)pyrimidin-4-yl)amino)-5-(pyrazin-2-yl)pyridin-2-yl)acetamide] | ≤ 10 | 10 to 100
10 | CC(=O)Nc1cc(Nc2cc(C)nc(C(C)(F)F)n2)c(-c2ccc(C(F)F)cn2)cn1 [Example 827, N-(4′-((2-(1,1-difluoroethyl)-6-methylpyrimidin-4-yl)amino)-5-(difluoromethyl)-[2,3′-bipyridin]-6′-yl)acetamide] | ≤ 10 | ≤ 10
11 | COc1cnc(-c2cnc(NC(C)=O)cc2Nc2ccnc(C(C)(F)F)n2)cn1 [Example 828, N-(4-((2-(1,1-difluoroethyl)pyrimidin-4-yl)amino)-5-(5-methoxypyrazin-2-yl)pyridin-2-yl)acetamide] | ≤ 10 | 10 to 100
12 | CCc1cc(Nc2cc(NC(C)=O)ncc2-c2cnc(OC)cn2)nc(C(C)(F)F)n1 [Example 829, N-(4-((2-(1,1-difluoroethyl)-6-ethylpyrimidin-4-yl)amino)-5-(5-methoxypyrazin-2-yl)pyridin-2-yl)acetamide] | ≤ 10 | 10 to 100
13 | COc1cnc(-c2cnc(NC(C)=O)cc2Nc2cc(OC3CC3)nc(C(C)(F)F)n2)cn1 [Example 830, N-(4-((6-cyclopropoxy-2-(1,1-difluoroethyl)pyrimidin-4-yl)amino)-5-(5-methoxypyrazin-2-yl)pyridin-2-yl)acetamide] | ≤ 10 | 10 to 100
14 | CCc1cc(Nc2cc(NC(C)=O)ncc2-c2ccc(=O)n(C)n2)nc(C(C)(F)F)n1 [Example 831, N-(4-((2-(1,1-difluoroethyl)-6-ethylpyrimidin-4-yl)amino)-5-(1-methyl-6-oxo-1,6-dihydropyridazin-3-yl)pyridin-2-yl)acetamide] | ≤ 10 | ≤ 10
15 | COc1ccc(-c2cnc(NC(C)=O)cc2Nc2cc(C(C)C)nc(C(C)(F)F)n2)nn1 [Example 832, N-(4-((2-(1,1-difluoroethyl)-6-isopropylpyrimidin-4-yl)amino)-5-(6-methoxypyridazin-3-yl)pyridin-2-yl)acetamide] | ≤ 10 | ≤ 10
16 | COc1ccc(-c2cnc(NC(C)=O)cc2Nc2cc(OC3CC3)nc(C(C)(F)F)n2)nn1 [Example 833, N-(4-((6-cyclopropoxy-2-(1,1-difluoroethyl)pyrimidin-4-yl)amino)-5-(6-methoxypyridazin-3-yl)pyridin-2-yl)acetamide] | ≤ 10 | ≤ 10

Row | Compound | IC50 [1] [nM] | IC50 [2] [nM]
17 | CC(=O)Nc1cc(Nc2cc(C)nc(C(C)(F)F)n2)c(-c2ccnc(C(C)(F)F)n2)cn1 [Example 837, N-(4-((2-(1,1-difluoroethyl)-6-methylpyrimidin-4-yl)amino)-5-(2-(1,1-difluoroethyl)pyrimidin-4-yl)pyridin-2-yl)acetamide] | ≤ 10 | ≤ 10
18 | CC(=O)Nc1cc(Nc2cc(C)nc(C(C)(F)F)n2)c(-c2cnc(C#N)cn2)cn1 [Example 838, N-(5-(5-cyanopyrazin-2-yl)-4-((2-(1,1-difluoroethyl)-6-methylpyrimidin-4-yl)amino)pyridin-2-yl)acetamide] | ≤ 10 | 10 to 100
19 | CCc1cc(Nc2cc(NC(C)=O)ncc2-c2ccc(C(C)(C)O)cn2)nc(C(C)(F)F)n1 [Example 839, N-(4′-((2-(1,1-difluoroethyl)-6-ethylpyrimidin-4-yl)amino)-5-(2-hydroxypropan-2-yl)-[2,3′-bipyridin]-6′-yl)acetamide] | ≤ 10 | ≤ 10
20 | CC(=O)Nc1cc(Nc2ccnc(C(C)(F)F)n2)c(-c2ccc(N(C)C)nn2)cn1 [Example 841, N-(4-((2-(1,1-difluoroethyl)pyrimidin-4-yl)amino)-5-(6-(dimethylamino)pyridazin-3-yl)pyridin-2-yl)acetamide] | ≤ 10 | ≤ 10
21 | CC(=O)Nc1cc(Nc2ccnc(C(C)(F)F)n2)c(-c2cnc(N(C)C)cn2)cn1 [Example 842, N-(4-((2-(1,1-difluoroethyl)pyrimidin-4-yl)amino)-5-(5-(dimethylamino)pyrazin-2-yl)pyridin-2-yl)acetamide] | ≤ 10 | 10 to 100
22 | CC(=O)Nc1cc(Nc2ccnc(C(C)(F)F)n2)c(-c2cnc(N3CCCC3)cn2)cn1 [Example 843, N-(4-((2-(1,1-difluoroethyl)pyrimidin-4-yl)amino)-5-(5-(pyrrolidin-1-yl)pyrazin-2-yl)pyridin-2-yl)acetamide] | ≤ 10 | 10 to 100
23 | CC(=O)Nc1cc(Nc2ccnc(C(C)(F)F)n2)c(-c2cnc(N3CCOCC3)cn2)cn1 [Example 844, N-(4-((2-(1,1-difluoroethyl)pyrimidin-4-yl)amino)-5-(5-morpholinopyrazin-2-yl)pyridin-2-yl)acetamide] | ≤ 10 | 10 to 100
24 | CC(=O)Nc1cc(Nc2ccnc(C(C)(F)F)n2)c(-c2ccc(N3CCCC3)nn2)cn1 [Example 845, N-(4-((2-(1,1-difluoroethyl)pyrimidin-4-yl)amino)-5-(6-(pyrrolidin-1-yl)pyridazin-3-yl)pyridin-2-yl)acetamide] | ≤ 10 | ≤ 10
25 | CCc1cc(Nc2cc(NC(C)=O)ncc2-c2ccc(COC)cn2)nc(C(C)(F)F)n1 [Example 846, N-(4′-((2-(1,1-difluoroethyl)-6-ethylpyrimidin-4-yl)amino)-5-(methoxymethyl)-[2,3′-bipyridin]-6′-yl)acetamide] | ≤ 10 | ≤ 10
26 | CCc1cc(Nc2cc(NC(C)=O)ncc2-c2ncc(OC(F)F)cn2)nc(C(C)(F)F)n1 [Example 848, N-(4-((2-(1,1-difluoroethyl)-6-ethylpyrimidin-4-yl)amino)-5-(5-(difluoromethoxy)pyrimidin-2-yl)pyridin-2-yl)acetamide] | ≤ 10 | ≤ 10
27 | CC(=O)Nc1cc(Nc2ccnc(C(C)(F)F)n2)c(-c2cnc(C#N)cn2)cn1 [Example 850, N-(5-(5-cyanopyrazin-2-yl)-4-((2-(1,1-difluoroethyl)pyrimidin-4-yl)amino)pyridin-2-yl)acetamide] | ≤ 10 | 100 to 1000
28 | CC(=O)Nc1cc(Nc2ccnc(C(C)(F)F)n2)c(-c2ccc(C(C)(C)O)cn2)cn1 [Example 852, N-(4′-((2-(1,1-difluoroethyl)pyrimidin-4-yl)amino)-5-(2-hydroxypropan-2-yl)-[2,3′-bipyridin]-6′-yl)acetamide] | ≤ 10 | ≤ 10
29 | CCc1cc(Nc2cc(NC(C)=O)ncc2-c2cnc(C(C)(C)O)cn2)nc(C(C)(F)F)n1 [Example 855, N-(4-((2-(1,1-difluoroethyl)-6-ethylpyrimidin-4-yl)amino)-5-(5-(2-hydroxypropan-2-yl)pyrazin-2-yl)pyridin-2-yl)acetamide] | ≤ 10 | ≤ 10
30 | CCc1cc(Nc2cc(NC(C)=O)ncc2-c2cnc(N(C)C)cn2)nc(C(C)(F)F)n1 [Example 856, N-(4-((2-(1,1-difluoroethyl)-6-ethylpyrimidin-4-yl)amino)-5-(5-(dimethylamino)pyrazin-2-yl)pyridin-2-yl)acetamide] | ≤ 10 | 10 to 100
31 | CC(=O)Nc1cc(Nc2ccnc(C(C)(F)F)n2)c(-c2ccc(OC(F)F)nn2)cn1 [Example 858, N-(4-((2-(1,1-difluoroethyl)pyrimidin-4-yl)amino)-5-(6-(difluoromethoxy)pyridazin-3-yl)pyridin-2-yl)acetamide] | ≤ 10 | 10 to 100
